Measured values: US5264372A (Amylin Pharmaceuticals, Inc., priority 1991, dated 1993)

Legend:
[1] = tested on: CGRP binding sites in cerebral cortex; conditions: human and rat cerebral cortex; cited from earlier work
[2] = target: T1, ^125 I-h CGRP binding site (CGRP receptor) in rat liver membranes (Rattus norvegicus, UniProt Q63118+Q9JJ74); experiment: 125I-h CGRP binding to rat liver membranes (saturation and competition)
T1 construct: from tissue; host or cells: rat liver membranes
Procedure: Membranes were prepared from male Wistar or Sprague-Dawley rats (200-250 grams). Following decapitation, liver, soleus muscle and brain regions were removed to phosphate-buffered saline (PBS), pH 7.4 at 4° C. Tissues were weighed then placed in 5 ml/g tissue of ice-cold 20 mM HEPES buffer, pH 7.4, and homogenized with a Polytron at setting 4 for 10 seconds. An additional 30 ml of cold HEPES was added, and the homogenates centrifuged for 15 minutes at 48,000×g. After discarding the supernatant fluids, membrane pellets were homogenized in 40 ml of fresh HEPES buffer and centrifuged as before. Membranes were washed again by homogenization in buffer and centrifugation.
The final membrane pellet was resuspended in a volume of 20 mM HEPES buffer containing 0.2 mM PMSF added immediately before use from a stock 0.2 M solution in ethanol. A volume of buffer was used sufficient to yield a concentration of about 0 to about 20 mg original tissue/ml.
To 12×75 mm glass or polypropylene tubes were added 150 μl of HBBM buffer (20 mM HEPES buffer, pH 7.4, containing 1 mg/ml bacitracin, 1 mg/ml protease-free BSA Fraction V, 4 mM MgCl2) to which 0.2 mM PMSF was added just prior to use.
To this solution, 50 μl of unlabeled peptide diluted in HBBM buffer at concentrations of […] to 10^-6 M, were added. Control tubes contained HBBM alone. […] Incubations were begun by the addition of 250 μl of buffer containing membranes from 4 mg original weight of tissue, and continued for 60 minutes at room temperature (24° C.).
Suspensions were then filtered through GF/B glass fiber filters (previously soaked for 5 hours in 0.3% PEI) in a Brandel M-24 harvester. Filters were washed immediately before use with 5 ml of cold PBS, and immediately after filtration with 15 ml cold PBS. Filters were then counted in a gamma-counter.
The concentration of free ligand was derived by subtracting […] from total ligand added.
Scatchard and competition curve analysis was performed as described above.

[3] = Plasma glucose increment after i.v. peptide in fasted anesthetized rats; conditions: doses of 1 and 10 μg i.v.
[4] = target: ^125 I-CGRP binding in skeletal muscle crude membrane preparations; conditions: Chantry et al.; cited from earlier work
[5] = target: ^125 I-CGRP binding sites in membranes from rat cerebellum (Rattus norvegicus, UniProt Q63118+Q9JJ74)
Procedure: Binding assays were carried out as described in Example II.
Cerebellum membranes were also tested, as this area contains high densities of CGRP receptors but low to absent amounts of the variant CGRP receptor subtypes present in nucleus accumbens (Sexton et al., 1988).

[6] = target: ^125 I-h CGRP binding sites in nucleus accumbens and surrounding regions; experiment: Competition for 125I-h CGRP binding to nucleus accumbens area (basal forebrain) membranes; set-up: species or system rat
Text: From the ventral surface of rat brains, cuts were made rostral to the hypothalamus bounded laterally by the olfactory tracts and extending at a 45 angle medially from these tracts. This tissue, containing the nucleus accumbens and surrounding regions, was collected and weighed, and membranes prepared as described in Example I. The region from which tissue was collected as described above is here termed the basal forebrain, and includes the nucleus accumbens and surrounding regions.

[7] = tested on: insulin-stimulated glycogen synthesis in rat soleus muscle; experiment: Rat soleus muscle insulin-antagonism assay (inhibition of insulin-stimulated glycogen synthesis); assay type: cell-based; conditions: for IC50: insulin 1000 μU/ml, read-out: IC50 for inhibition of the stimulation of glycogen synthesis by insulin; for Agonist activity in words: amylin receptors in rat skeletal muscle
Procedure: The ability of insulin to stimulate glycogen synthesis in rat soleus muscle in vitro was measured as described by Leighton B. and Cooper, G. J. S., Nature 335:632-635 (1988), with the following modifications. Rats were unfed for 4 hours prior to sacrifice; muscles were not stretched on clips; bovine serum albumin (BSA) and HEPES were omitted from the assay medium; and, the insulin concentration used was 1000 μU/ml.

[8] = target: T2, CGRP binding sites (receptors) on liver membrane (Rattus norvegicus, UniProt Q63118+Q9JJ74); conditions: Morishita et al.; read-out: Affinity; cited from earlier work
T2 construct: host or cells: liver membranes; crude skeletal muscle membranes

[9] = target: T3, calcitonin sites in brain and renal membranes (Homo sapiens, UniProt P30988); conditions: cited from earlier work
T3 construct: host or cells: brain and renal membranes
T3 sequence (P30988 25-474): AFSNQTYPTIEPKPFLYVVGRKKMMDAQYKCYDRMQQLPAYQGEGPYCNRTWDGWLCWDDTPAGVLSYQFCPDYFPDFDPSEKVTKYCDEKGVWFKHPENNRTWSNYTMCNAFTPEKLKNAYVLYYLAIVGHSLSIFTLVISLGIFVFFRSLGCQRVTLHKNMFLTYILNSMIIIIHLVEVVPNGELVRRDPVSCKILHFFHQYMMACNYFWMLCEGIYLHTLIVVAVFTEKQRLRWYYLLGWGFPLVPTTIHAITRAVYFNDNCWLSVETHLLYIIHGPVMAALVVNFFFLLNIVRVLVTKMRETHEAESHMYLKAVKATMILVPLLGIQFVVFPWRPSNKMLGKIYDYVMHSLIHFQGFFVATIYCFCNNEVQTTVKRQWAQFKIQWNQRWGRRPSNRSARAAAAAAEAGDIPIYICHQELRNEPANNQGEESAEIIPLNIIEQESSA

[10] = tested on: rat soleus muscle membranes; experiment: Direct binding of labeled r amylin to rat soleus muscle membranes; conditions: by 1 μM unlabeled r amylin
Text: (§1) Control tubes contained HBBM alone.
(§2) Filters were then counted in a gamma-counter.

rat liver membranes = experiment: 125I-r amylin binding to rat liver membranes; conditions: 15 pM tracer; 1 μM h CGRP or 1 μM r amylin as displacing peptide
Text: as §1, §2

T1 sequence (Q63118 24-464): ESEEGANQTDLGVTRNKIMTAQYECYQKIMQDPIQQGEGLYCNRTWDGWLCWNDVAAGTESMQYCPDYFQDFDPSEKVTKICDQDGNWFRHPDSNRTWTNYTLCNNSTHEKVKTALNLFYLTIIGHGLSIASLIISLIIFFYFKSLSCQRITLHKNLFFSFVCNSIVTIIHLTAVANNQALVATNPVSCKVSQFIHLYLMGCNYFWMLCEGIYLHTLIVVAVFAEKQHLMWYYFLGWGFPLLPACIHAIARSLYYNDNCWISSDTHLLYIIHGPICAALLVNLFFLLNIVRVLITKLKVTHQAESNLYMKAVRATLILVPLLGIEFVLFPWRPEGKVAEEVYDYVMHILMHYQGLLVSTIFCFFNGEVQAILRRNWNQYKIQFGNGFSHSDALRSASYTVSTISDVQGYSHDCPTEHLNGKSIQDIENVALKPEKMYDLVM
T1 sequence (Q9JJ74 27-148): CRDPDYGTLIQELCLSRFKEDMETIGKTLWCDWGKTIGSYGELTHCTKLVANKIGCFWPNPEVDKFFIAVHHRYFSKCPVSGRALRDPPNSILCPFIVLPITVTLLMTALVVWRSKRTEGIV
T2 sequence (Q63118 24-464): as the sequence (Q63118 24-464) above
T2 sequence (Q9JJ74 27-148): as the sequence (Q9JJ74 27-148) above
Sequence of ^125 I-CGRP binding sites in membranes from rat cerebellum (Q63118 24-464): as the sequence (Q63118 24-464) above
Sequence of ^125 I-CGRP binding sites in membranes from rat cerebellum (Q9JJ74 27-148): as the sequence (Q9JJ74 27-148) above

calcitonin
Fold less potent than rat or human CGRP [1]: 500-1000 fold

CC(C)C[C@H](NC(=O)CNC(=O)[C@H](C)NC(=O)[C@H](CC(C)C)NC(=O)[C@H](CCCNC(=N)N)NC(=O)[C@H](Cc1cnc(I)[nH]1)NC(=O)[C@@H](NC(=O)[C@@H](NC(=O)[C@@H]1CSSC[C@H](NC(=O)[C@H](C)N)C(=O)N[C@@H](CC(=O)O)C(=O)N[C@@H]([C@@H](C)O)C(=O)N[C@@H](C)C(=O)N[C@@H]([C@@H](C)O)C(=O)N1)C(C)C)[C@@H](C)O)C(=O)N[C@@H](CC(C)C)C(=O)N[C@@H](CO)C(=O)N[C@@H](CCCNC(=N)N)C(=O)N[C@@H](CO)C(=O)NCC(=O)NCC(=O)N[C@H](C(=O)N[C@H](C(=O)N[C@@H](CCCCN)C(=O)N[C@@H](CC(N)=O)C(=O)N[C@@H](CC(N)=O)C(=O)N[C@@H](Cc1ccccc1)C(=O)N[C@H](C(=O)N1CCC[C@H]1C(=O)N[C@H](C(=O)N[C@@H](CC(N)=O)C(=O)N[C@H](C(=O)NCC(=O)N[C@@H](CO)C(=O)N[C@@H](CCCCN)C(=O)N[C@@H](C)C(=O)N[C@@H](Cc1ccccc1)C(N)=O)C(C)C)[C@@H](C)O)C(C)C)C(C)C)C(C)C [^125 I-h CGRP]
Increase of binding to liver membranes in the presence of MgCl2 ([2]; 2 mM MgCl2): about 2.8 fold | Bmax ([2]; Scatchard analysis, rat liver membranes): 49.4 fmol/mg protein

CC(C)C[C@H](NC(=O)[C@H](CC(N)=O)NC(=O)[C@H](CC(N)=O)NC(=O)[C@H](CO)NC(=O)[C@H](CO)NC(=O)[C@H](CCCNC(=N)N)NC(=O)[C@@H](NC(=O)[C@H](CC(C)C)NC(=O)[C@H](Cc1ccccc1)NC(=O)[C@H](CC(N)=O)NC(=O)[C@H](C)NC(=O)[C@H](CC(C)C)NC(=O)[C@H](CCCNC(=N)N)NC(=O)[C@H](CCC(N)=O)NC(=O)[C@@H](NC(=O)[C@H](C)NC(=O)[C@@H]1CSSC[C@H](NC(=O)[C@@H](N)CCCCN)C(=O)N[C@@H](CC(N)=O)C(=O)N[C@@H]([C@@H](C)O)C(=O)N[C@@H](C)C(=O)N[C@@H]([C@@H](C)O)C(=O)N1)[C@@H](C)O)C(C)C)C(=O)NCC(=O)N1CCC[C@H]1C(=O)N[C@H](C(=O)N[C@@H](CC(C)C)C(=O)N1CCC[C@H]1C(=O)N1CCC[C@H]1C(=O)N[C@H](C(=O)N[C@@H](CC(N)=O)C(=O)N[C@H](C(=O)NCC(=O)N[C@@H](CO)C(=O)N[C@@H](CC(N)=O)C(=O)N[C@H](C(=O)N[C@@H](Cc1ccc(O)cc1)C(N)=O)[C@@H](C)O)C(C)C)[C@@H](C)O)C(C)C [amylin]
Hyperglycemic effect compared with CGRP [3]: more effective hyperglycemic agent | IC50 [4]: 10 nM

CC(C)C[C@H](NC(=O)[C@H](CC(N)=O)NC(=O)[C@H](CC(N)=O)NC(=O)[C@H](CO)NC(=O)[C@H](CO)NC(=O)[C@H](CCCNC(=N)N)NC(=O)[C@@H](NC(=O)[C@H](CC(C)C)NC(=O)[C@H](Cc1ccccc1)NC(=O)[C@H](CC(N)=O)NC(=O)[C@H](C)NC(=O)[C@H](CC(C)C)NC(=O)[C@H](CCCNC(=N)N)NC(=O)[C@H](CCC(N)=O)NC(=O)[C@@H](NC(=O)[C@H](C)NC(=O)[C@@H]1CSSC[C@H](NC(=O)[C@@H](N)CCCCN)C(=O)N[C@@H](CC(N)=O)C(=O)N[C@@H]([C@@H](C)O)C(=O)N[C@@H](C)C(=O)N[C@@H]([C@@H](C)O)C(=O)N1)[C@@H](C)O)C(C)C)C(=O)NCC(=O)N1CCC[C@H]1C(=O)N[C@H](C(=O)N[C@@H](CC(C)C)C(=O)N1CCC[C@H]1C(=O)N1CCC[C@H]1C(=O)N[C@H](C(=O)N[C@@H](CC(N)=O)C(=O)N[C@H](C(=O)NCC(=O)N[C@@H](CO)C(=O)N[C@@H](CC(N)=O)C(=O)N[C@H](C(=O)N[C@@H](Cc1ccc(O)cc1)C(N)=O)[C@@H](C)O)C(C)C)[C@@H](C)O)C(C)C [r amylin, rat amylin]
Hill Slope [5]: -0.897 | IC50 ([6]; Nucleus Accumbens Area, ^125 I-h CGRP tracer, r amylin 2 site fit): 5.89 nM | IC50 ([6]; high affinity site of biphasic inhibition): 0.026 nM | IC50 [7]: 8.3 ± 1.9 nM | Hill Slope ([2]; competition against ^125 I-h CGRP, rat liver membranes): -0.67

CGRP
IC50 [4]: 0.3 nM | Ki [8]: ~0.009 nM | Fold less potent in competing for calcitonin sites [9]: 500-1000 fold | Potency relative to h CGRP8-37 ([2]; liver membranes): 4 times | Potency relative to r amylin ([2]; liver membranes): about 200 fold

^125 I-r amylin: rat amylin Bolton-Hunter labeled with 125I at the N-terminal lysine, from Amersham
Proportion of total binding displaceable [10]: 15% | Specific binding to rat liver membranes (rat liver membranes): No specific binding

eel calcitonin
Agonist activity in words [7]: potent agonists at amylin receptors | IC50 [7]: 0.4 nM

salmon calcitonin
Agonist activity in words [7]: potent agonists at amylin receptors | IC50 [7]: 0.38 nM
